{"source": "patent US7125847B1", "about": "“Mechanically activated channel blocker” (priority 2000, dated 2006)", "key": {"[1]": {"system": "stretch-activated channels (SACs)", "assay": "Outside-out patch clamp of stretch-activated channels in adult rat astrocytes", "type": "cell-based", "protocol": "This embodiment describes the effect of the peptide GsMTx-4 variant (SEQ ID NO:1) on SACs. To illustrate this, adult rat astrocytes which are known to have SACs, were used. Adult rat astrocytes were cultured according to standard methods. Briefly, activated adult astrocytes isolated from gelatin-sponge implants from adult Sprague-Dawley rat brains obtained according to the method of Langan et al. (1995, Glia, 14:174–184) were used at passage numbers 2–4. Astrocytes were maintained in DMEM, 10% fetal bovine serum and 1% Penicillin/Streptomycin and were used in experiments between 2 and 5 days after passage. Cells between passage 4 and 35 expressed SACs with the same properties Both stellate process bearing cells and flat polygonal (fibroblast-like) cells were used.\nThe cultured astrocytes were used for single channel and whole cell recorndings. For single channel patch clamp, patch voltage was controlled by an Axopatch 200B (Axon Instruments, Calif.) and currents were recorded directly onto computer disk via a Labmaster DMA Ver. B (Scientific Instruments, Calif.) board controlled by pClamp6-Clampex acquisition software (Axon Instruments, California). Currents were sampled at 10 KHz and low-pass filtered at 2 KHz through the 4 pole Bessel filter on the Axopatch 200B. Experimental voltage protocols were controlled by pClamp6-Clampex. All potentials are defined with respect to the extracellular surface.\nElectrodes were pulled on a Model PC-84 pipette puller (Brown-Flaming Instruments, Calif.), painted with Sylgard 184 (Dow Corning Corp. Midland Mich.) and fire polished. Electrodes were filled with KCl saline (KCl 140 mM, EGTA 5 mM, MgSO4 2 mM, Hepes 10 mM, pH 7.3) and had resistances ranging from 3–8 MWBath saline consisted of NaCl 140 mM, KCl 5 mM, MgSO4 1 mM, CaCl2 1 mM, glucose 6 mM and Hepes 10 mM, pH 7.3.\nPressure and suction were applied to the pipette by a pressure clamp. Pressure values represent pressure in the pipette, i.e., the intracellular side of the membrane in outside-out patches. Suction applied to a cell-attached patch has the same sign as pressure applied to an outside-out patch. The rise time of pressure changes at the tip were determined by monitoring the rate of current change when pressure steps were applied to an electrode containing 150 mM KCl solution and placed in a water bath. The t10-90 was ˜5 ms as determined by exponential fits to the current decay. Perfusion of toxin samples was performed by a pressurized bath perfusion system BPS-8 (ALA scientific instruments, NY) with 8 separate channels.\nOff-line data analysis was performed with pClamp6 analysis software and Origin 5.0. Maximal unitary channel currents were determined via Guassian fits to the peaks of all points amplitude histograms generated from records containing 1–3 channels. […] Some of these records were analyzed by determining all of the step-like changes in current during the pressure application and selecting the average maximal current level as the unitary current. The data analyzed by this method was in good agreement with the unitary current levels determined by analysis of all points amplitude histograms from single channel patches.\nThe outside out patches from adult astrocytes as described above were used for testing the HPLC fractions obtained in Example 1. The HPLC fractions were lyophilized, redissolved at a 1:1000 dilution and perfused onto outside out patches. […] The fraction containing the single peak in FIG. 1D was then tested for activity against SACs. […] The patch was held at −50 mV, and the pressure pulse is shown above the records.\nThe entire experiment is comprised of 60 pressure steps: steps 1–20 occur before GsMTx-4 application; steps 21–38 while GsMTx-4 is being perfused; steps 39–60 occur during washout. Each 500 ms pressure step was separated by 1.5 seconds at 0 pressure.\nThe association rate of the toxin was determined by applying GsMTx-4 to an outside-out patch while the channels were activated by stretch (FIG. 5). […]"}, "[2]": {"system": "whole-cell swelling-activated currents in adult rat astrocytes", "assay": "Whole-cell (Nystatin perforated patch) currents in adult rat astrocytes, isotonic and hypotonic swelling", "type": "cell-based", "details": "for estimated reduction in swelling-activated current: relative to mean before and after controls", "protocol": "It is considered that part of the swelling activated currents are attributable to SACs. To illustrate this embodiment, adult rat astrocytes were cultured as described above. Whole cell current was measured by the Nystatin perforated patch. Bath saline was the same as in Example 2. Pipette saline consisted of: KCl 80 mM, K2SO4 30 mM, NaCl 10 mM, MgSO4 3 mM, CaCl20.13 mM, EGTA 0.23 mM and Hepes 10 mM, pH 7.3. Nystatin was dissolved in pipette saline to a final concentration of […]. After patch formation, access resistance was allowed to drop to ˜15 MW (uncompensated), after which the series resistance compensation was set at ˜65%, and prediction was set to ˜75%. Whole cell capacitance measurements ranged from ˜25–50 pF. Whole cell currents were monitored by either a voltage step protocol shown in FIG. 7, or by 600 ms voltage ramps. During hypotonic swelling the cell was perfused initially with isotonic saline (bath saline with 160 mM mannitol replacing 80 mM NaCl) before switching to hypotonic saline (isotonic saline minus 140 mM mannitol). The BPS-8 perfusion system was used to rapidly (<200 ms) change the bathing solution. Peak currents were measured at 3–5 ms into voltage steps."}}, "note": "Where “and” joins values, the source holds several entries; their conditions need not be identical. Equal entries are not always repeated.", "data": [{"sequence": "GCLEFWWKCNPNDDKCCRPKLKCSKLFKLCNFSFGK [GsMTx-4]", "values": [{"measurement": "time constant of current decay during GsMTx-4 application (association)", "setting": "[1]; 5 μM toxin, outside-out patches held at −50 mV, single exponential fit", "value": "594 ± 10", "unit": "ms"}, {"measurement": "average SAC current when GsMTx-4 was applied", "setting": "[1]; 7 patches, −50 mV, 2.04±0.14 pA prior to application", "value": "0.17±0.02", "unit": "pA"}, {"measurement": "block of SACs", "setting": "[1]; HPLC fractions at 1:1000 dilution relative to whole venom, outside-out patches", "value": "the block was complete"}, {"measurement": "association constant ka", "setting": "[1]; assuming 1:1 binding, from time constant at 5 μM", "value": "340000 M⁻¹ s⁻¹ and 330000 M⁻¹ s⁻¹"}, {"measurement": "ratio of blocked to unblocked current I/I0", "setting": "[1]; data of FIG. 6", "value": 0.083}, {"measurement": "dissociation constant kd", "setting": "[1]; from recovery kinetics on washout", "value": 0.21, "unit": "s⁻¹"}, {"measurement": "average SAC current after GsMTx-4 washout", "setting": "[1]; last 8 pressure steps, 10 seconds after washout", "value": "2.28±0.17", "unit": "pA"}, {"measurement": "calculated equilibrium constant KD=kd/ka", "setting": "[1]; ratio of rate constants", "value": "631 ± 240", "unit": "nM"}, {"measurement": "Kd", "setting": "[1]; single binding site model, read-out: binding constant Kd from I/I0", "value": 415, "unit": "nM"}, {"measurement": "change in reversal potential of swelling-activated current", "setting": "[2]; 5 μM GsMTx-4", "value": "+2 mV"}, {"measurement": "effect on whole-cell currents in isotonic saline", "setting": "[2]; 5 μM GsMTx-4, 30 to 120 s after perfusion", "value": "no significant difference"}, {"measurement": "reduction of peak swelling-activated current response", "setting": "[2]; 5 μM, 30 seconds after hypotonic exposure", "value": "about 75%"}, {"measurement": "estimated reduction in swelling-activated current", "setting": "[2]; 5 μM, at +100 mV", "value": "~38", "unit": "%"}, {"measurement": "estimated reduction in swelling-activated current", "setting": "[2]; 5 μM, at −100 mV", "value": "~48", "unit": "%"}]}]}
